Results from paper PMC12203311, “Design, synthesis, in silico and in vitro evaluation of pyrrole–indole hybrids as dual tubulin and aromatase inhibitors with potent anticancer activities” (RSC Advances, 2025).
Like-named read-outs stand apart in the source and are kept apart here.

What was measured:
Test in all cases: NCI60 five-dose screen
NCI/ADR-RES = assay type: cell-based, human; conditions: ovarian cancer; for CC50: read-out: LC50 (the source's name)
MDA-MB-468 = assay type: cell-based; conditions: Homo sapiens, MDA-MB-468, breast cancer; for CC50: read-out: LC50 (the source's name)
SF-539 = assay type: cell-based; conditions: Homo sapiens, SF-539, CNS cancer; for CC50: read-out: LC50 (the source's name)
ACHN = assay type: cell-based; conditions: Homo sapiens, renal cancer; for CC50: read-out: LC50 (the source's name)
IGROV1 = assay type: cell-based; conditions: Homo sapiens, IGROV-1; IGROV1, ovarian cancer
SF-295 = assay type: cell-based; conditions: Homo sapiens, SF-295, CNS cancer; for CC50: read-out: LC50 (the source's name)
SK-MEL-5 = assay type: cell-based, human; conditions: for CC50: read-out: LC50 (the source's name)
SF-268 = assay type: cell-based; conditions: Homo sapiens, SF-268, CNS cancer; for CC50: read-out: LC50 (the source's name)
SNB-75 = assay type: cell-based; conditions: Homo sapiens, SNB-75, CNS cancer; for CC50: read-out: LC50 (the source's name)
A549/ATCC = assay type: cell-based; conditions: Homo sapiens, NSC lung cancer; for CC50: read-out: LC50 (the source's name)
SNB-19 = assay type: cell-based; conditions: Homo sapiens, SNB-19, CNS cancer; for CC50: read-out: LC50 (the source's name)
HCT-15 = assay type: cell-based; conditions: Homo sapiens, HCT-15, colon cancer; for CC50: read-out: LC50 (the source's name)
T-47D = assay type: cell-based; conditions: Homo sapiens, T47D, breast cancer; for CC50: read-out: LC50 (the source's name)
LOX IMVI = assay type: cell-based; conditions: Homo sapiens, melanoma; for CC50: read-out: LC50 (the source's name)
RPMI-8226 = assay type: cell-based; conditions: Homo sapiens, RPMI-8226, leukemia; for CC50: read-out: LC50 (the source's name)
SK-MEL-2 = assay type: cell-based; conditions: Homo sapiens, SK-MEL-2, melanoma; for CC50: read-out: LC50 (the source's name)
UACC-62 = assay type: cell-based; conditions: Homo sapiens, UACC-62, melanoma; for CC50: read-out: LC50 (the source's name)
MCF7 = assay type: cell-based; conditions: Homo sapiens, MCF7, breast cancer; for CC50: read-out: LC50 (the source's name)
EKVX = assay type: cell-based; conditions: Homo sapiens, NSC lung cancer; for CC50: read-out: LC50 (the source's name)
OVCAR-3 = assay type: cell-based; conditions: Homo sapiens, OVCAR-3, ovarian cancer; for CC50: read-out: LC50 (the source's name)
BT-549 = assay type: cell-based; conditions: Homo sapiens, BT-549, breast cancer; for CC50: read-out: LC50 (the source's name)
SN12C = assay type: cell-based; conditions: Homo sapiens, renal cancer; for CC50: read-out: LC50 (the source's name)
NCI-H226 = assay type: cell-based; conditions: Homo sapiens, NCI-H226, NSC lung cancer; for CC50: read-out: LC50 (the source's name)
HCC-2998 = assay type: cell-based; conditions: Homo sapiens, HCC-2998, colon cancer; for CC50: read-out: LC50 (the source's name)
UO-31 = assay type: cell-based; conditions: Homo sapiens, UO-31, renal cancer; for CC50: read-out: LC50 (the source's name)
SK-OV-3 = assay type: cell-based; conditions: Homo sapiens, SK-OV-3, ovarian cancer; for CC50: read-out: LC50 (the source's name)
HCT-116 = assay type: cell-based; conditions: Homo sapiens, HCT-116, colon cancer; for CC50: read-out: LC50 (the source's name)
OVCAR-8 = assay type: cell-based; conditions: Homo sapiens, OVCAR-8, ovarian cancer; for CC50: read-out: LC50 (the source's name)
MOLT-4 = assay type: cell-based; conditions: Homo sapiens, MOLT-4, leukemia; for CC50: read-out: LC50 (the source's name)
PC-3 = assay type: cell-based; conditions: Homo sapiens, PC-3, prostate cancer; for CC50: read-out: LC50 (the source's name)
K-562 = assay type: cell-based; conditions: Homo sapiens, K562, K-562, leukemia; for CC50: read-out: LC50 (the source's name)
MDA-MB-231/ATCC = assay type: cell-based; conditions: Homo sapiens, breast cancer; for CC50: read-out: LC50 (the source's name)
HT29 = assay type: cell-based; conditions: Homo sapiens, HT-29, HT29, colon cancer; for CC50: read-out: LC50 (the source's name)
[1] = Homo sapiens, SK-MEL-5, SK-MEL-5, melanoma
[2] = Homo sapiens, SK-MEL-5, melanoma

Molecule `Cc1cc(C)c(/C=N/NC(=O)c2[nH]c3ccc(Br)cc3c2-c2ccccc2)[nH]1` [Derivative 3c, (E)-5-Bromo-N′-((3,5-dimethyl-1H-pyrrol-2-yl)methylene)-3-phenyl-1H-2-carbohydrazide] has a GI50 (NCI/ADR-RES; Homo sapiens) of 2110 nM, a CC50 (NCI/ADR-RES; Homo sapiens) of 19300 nM and a GI50 (MDA-MB-468) of 2000 nM. For the same molecule, the CC50 (MDA-MB-468) was 26.4 µM, the GI50 (SF-539) was 2930 nM and the CC50 (SF-539) was 32.4 µM. It also gave a GI50 (ACHN) of 3030 nM, a CC50 (ACHN) of 34.2 µM and a GI50 (IGROV1) of 2470 nM. It also gave a GI50 (SF-295) of 2760 nM, a CC50 (SF-295) of 29.5 µM and a CC50 (SK-MEL-5; [1]) of 19.3 µM. It also gave a GI50 (SK-MEL-5; [2]) of 2520 nM, a CC50 (SK-MEL-5; SK-MEL-5, melanoma) of 28.8 µM and a GI50 (SF-268) of 2980 nM. For the same molecule, the CC50 (SF-268) was 53.2 µM, the GI50 (SNB-75) was 2680 nM and the CC50 (SNB-75) was 43.9 µM. For the same molecule, the GI50 (A549/ATCC) was 3820 nM, the CC50 (A549/ATCC) was 45.4 µM and the GI50 (SNB-19) was 3860 nM. It also gave a CC50 (SNB-19) of 39.4 µM, a GI50 (HCT-15) of 2910 nM and a CC50 (HCT-15) of 37.2 µM. The GI50 (T-47D) was 4.68 µM, the CC50 (T-47D) was 77.6 µM and the GI50 (LOX IMVI) was 2430 nM. For the same molecule, the CC50 (LOX IMVI) was 30.2 µM, the GI50 (RPMI-8226) was 2430 nM and the CC50 (RPMI-8226) was over 100 µM. It also gave a GI50 (SK-MEL-2) of 3370 nM, a CC50 (SK-MEL-2) of 41.7 µM and a GI50 (UACC-62) of 2360 nM. It also gave a CC50 (UACC-62) of 32.4 µM, a GI50 (MCF7) of 2300 nM and a CC50 (MCF7) of 37.2 µM. For the same molecule, the GI50 (EKVX) was 3240 nM, the CC50 (EKVX) was 35.4 µM and the GI50 (OVCAR-3) was 2530 nM. It also gave a CC50 (OVCAR-3) of 36.4 µM, a GI50 (BT-549) of 5040 nM and a CC50 (BT-549) of 47.9 µM. For the same molecule, the GI50 (SN12C) was 2580 nM, the CC50 (SN12C) was 32.3 µM and the GI50 (NCI-H226) was 2580 nM. It also gave a CC50 (NCI-H226) of 34.4 µM, a GI50 (HCC-2998) of 3550 nM and a CC50 (HCC-2998) of 37.2 µM. It also gave a GI50 (UO-31) of 1770 nM, a CC50 (UO-31) of 33.8 µM and a GI50 (SK-OV-3) of 6.81 µM. For the same molecule, the CC50 (SK-OV-3) was 70.8 µM, the GI50 (HCT-116) was 4020 nM and the CC50 (HCT-116) was over 100 µM. For the same molecule, the GI50 (OVCAR-8) was 3100 nM, the CC50 (OVCAR-8) was 45 µM and the GI50 (MOLT-4) was 2290 nM. The CC50 (MOLT-4) was over 100 µM, the GI50 (PC-3) was 2060 nM and the CC50 (PC-3) was 47.6 µM. For the same molecule, the GI50 (K-562) was 2430 nM, the CC50 (K-562) was over 100 µM and the GI50 (MDA-MB-231/ATCC) was 2780 nM. For the same molecule, the CC50 (MDA-MB-231/ATCC) was 32.8 µM, the GI50 (HT29) was 3530 nM and the CC50 (HT29) was 46.6 µM.
`O=C(N/N=C/c1cc(Br)c[nH]1)c1[nH]c2ccc(Br)cc2c1-c1ccccc1` [Derivative 3e, (E)-5-Bromo-N′-((4-bromo-1H-pyrrol-2-yl)methylene)-3-phenyl-1H-indole-2-carbohydrazide] was tested, and the GI50 (NCI/ADR-RES; Homo sapiens) was 197 nM, the CC50 (NCI/ADR-RES; Homo sapiens) was 970 nM and the CC50 (NCI/ADR-RES) was 971 nM. It also gave a GI50 (MDA-MB-468) of 231 nM, a CC50 (MDA-MB-468) of 13 µM and a GI50 (SF-539) of 214 nM. It also gave a CC50 (SF-539) of 25.5 µM, a GI50 (ACHN) of 418 nM and a CC50 (ACHN) of 23.5 µM. For the same molecule, the GI50 (IGROV1) was 440 nM, the GI50 (SF-295) was 254 nM and the CC50 (SF-295) was 25.9 µM. The CC50 (SK-MEL-5; [1]) was 1.22 µM, the GI50 (SK-MEL-5; [2]) was 195 nM and the GI50 (SF-268) was 529 nM. The CC50 (SF-268) was 52.9 µM, the GI50 (SNB-75) was 475 nM and the CC50 (SNB-75) was 51 µM. It also gave a GI50 (A549/ATCC) of 395 nM, a CC50 (A549/ATCC) of 56.4 µM and a GI50 (SNB-19) of 330 nM. The CC50 (SNB-19) was 34.5 µM, the GI50 (HCT-15) was 280 nM and the CC50 (HCT-15) was 13.5 µM. For the same molecule, the GI50 (T-47D) was 1.4 µM, the CC50 (T-47D) was 82.5 µM and the GI50 (LOX IMVI) was 360 nM. It also gave a CC50 (LOX IMVI) of 6.98 µM, a GI50 (RPMI-8226) of 346 nM and a CC50 (RPMI-8226) of over 100 µM. It also gave a GI50 (SK-MEL-2) of 322 nM, a CC50 (SK-MEL-2) of 38.1 µM and a GI50 (UACC-62) of 439 nM. The CC50 (UACC-62) was 17.7 µM, the GI50 (MCF7) was 294 nM and the CC50 (MCF7) was 30.7 µM. For the same molecule, the GI50 (EKVX) was 620 nM, the CC50 (EKVX) was 34.3 µM and the GI50 (OVCAR-3) was 302 nM. It also gave a CC50 (OVCAR-3) of 17.3 µM, a GI50 (BT-549) of 314 nM and a CC50 (BT-549) of 36.2 µM. It also gave a GI50 (SN12C) of 310 nM, a CC50 (SN12C) of 5.49 µM and a GI50 (NCI-H226) of 382 nM. For the same molecule, the CC50 (NCI-H226) was 29.9 µM, the GI50 (HCC-2998) was 296 nM and the CC50 (HCC-2998) was 15.6 µM. It also gave a GI50 (UO-31) of 618 nM, a CC50 (UO-31) of 28.1 µM and a GI50 (SK-OV-3) of 0.966 µM. For the same molecule, the CC50 (SK-OV-3) was 53.8 µM, the GI50 (HCT-116) was 242 nM and the CC50 (HCT-116) was 85 µM. The GI50 (OVCAR-8) was 304 nM, the CC50 (OVCAR-8) was 18.2 µM and the GI50 (MOLT-4) was 375 nM. For the same molecule, the CC50 (MOLT-4) was over 100 µM, the GI50 (PC-3) was 382 nM and the CC50 (PC-3) was 38.1 µM. It also gave a GI50 (K-562) of 393 nM, a CC50 (K-562) of over 100 µM and a GI50 (MDA-MB-231/ATCC) of 215 nM. It also gave a CC50 (MDA-MB-231/ATCC) of 14.3 µM, a GI50 (HT29) of 345 nM and a CC50 (HT29) of 8.24 µM.
